System: histamine stimulated gastric acid secretion
Assay: Rat lumen perfused stomach (modified Ghosh and Schild procedure)
Format: in vivo
Text: Using a modification of the procedure described by Ghosh and Schild (Br. J. Pharmacology, 13, 54, 1958), ED . values after either intraduodenal (i.d) or intravenous (i.v) administration were obtained as follows: […]

[1] = i.d. (intraduodenal) administration

SMILES | ED50 (iv, i.v. administration) | ED50 [1]
COc1ccc2[nH]c([S+]([O-])Cc3cc(N)c(Br)cn3)nc2c1 (stereo not drawn) [Example 2, 2-(4-amino-5-bromo-2-pyridylmethylsulphinyl)-5-methoxy-(1-H)-benzimidazole] | 1.46 µmol/kg | 
COc1ccc2[nH]c([S+]([O-])Cc3nccc(N4CCOCC4)c3Cl)nc2c1 (stereo not drawn) [Example 4, 2-(4-morpholino-3-chloro-2-pyridylmethyl-sulphinyl)-5-methoxy-(1 H)-benzimidazole] | 1.17 µmol/kg | 
COc1ccc2[nH]c([S+]([O-])Cc3ncc(C)c(N4CCOCC4)c3Cl)nc2c1 (stereo not drawn) [Example 6, 2-(4-morpholino-3-chloro-5-methyl-2-pyridylmethylsulphinyl)--5-methoxy-(1H)-benzimidazole] |  | 1.94 µmol/kg
COc1ccc2[nH]c([S+]([O-])Cc3ncc(C)c(N4CCCCC4)c3Cl)nc2c1 (stereo not drawn) [Example 8, 2-(4-piperidino-3-chloro-5-methyl-2-pyridylmethylsulphinyl)--5-methoxy-(1H)-benzimidazole] |  | 2.38 µmol/kg
COc1ccc2[nH]c([S+]([O-])Cc3ncc(C)c(N4CCCC4)c3Cl)nc2c1 (stereo not drawn) [Example 14, 2-(4-pyrrolidino-3-chloro-5-methyl-2-pyridylmethylsulphinyl)-5-methoxy-(1 H)-benzimidazole] | 0.82 µmol/kg | 
COc1ccc2[nH]c([S+]([O-])Cc3ncc(C)c(N(C)C)c3Cl)nc2c1 (stereo not drawn) [Example 16, 2-(4-dimethylamino-3-chloro-5-methyl-2-pyridylmethylsulphi-nyl)-5-methoxy-(1H)-benzimidazole] |  | 1.46 µmol/kg
COc1ccc2[nH]c([S+]([O-])Cc3cc(N4CCCCC4)c(Br)cn3)nc2c1 (stereo not drawn) [Example 18, 2-(4-piperidino-5-bromo-2-pyridylmethylsulphinyl) - 5-methoxy-(1 H)-benzimidazole] | 0.85 µmol/kg | 
COc1ccc2[nH]c([S+]([O-])Cc3nccc(N4CCCCC4)c3Br)nc2c1 (stereo not drawn) [Example 20, 2-(4-piperidino-3-bromo-2-pyridylmethylsulphinyl) - 5-methoxy-(1H)-benzimidazole] | 0.86 µmol/kg | 
COc1ccc2[nH]c([S+]([O-])Cc3ncc(Br)c(N4CCCCC4)c3C)nc2c1 (stereo not drawn) [Example 22, 2-(4-piperidino-5-bromo-3-methyl-2-pyridylmethylsulphinyl)--5-methoxy-(1 H)-benzimidazole] |  | 4.55 µmol/kg

From EP0184322A1, “Benzimidazoles” (SMITH KLINE & FRENCH LABORATORIES LIMITED, priority 1984, dated 1986)
